# Source: ChEMBL document CHEMBL5608195, “Identification and biological evaluation of fused tetrahydroisoquinoline derivatives as Wnt/β-catenin signaling inhibitors to suppress colorectal cancer” (Eur J Med Chem, 2024)
# Active and inactive are the calls of the source. The rule behind the calls is not given here.
# Tests used:
# [1] = Toxicity in male BALB/c mouse xenografted with human HCT-116 cells assessed as effect on serum creatinine level at 10 to 40 mg/kg, ip by biochemical analysis; format: organism-based; conditions: in vivo, dose 10-40 mg/kg
# RKO [2] = test: Inhibition of colony formation human RKO cells incubated for 24 hrs by crystal violet staining based analysis; format: functional, cell-based; conditions: dose 6-10 µM
# HCT-116 [3] = test: Antiproliferative activity against human HCT-116 cells assessed as inhibition of DNA proliferation at 10 uM incubated for 22 hrs by fluorescence based microscopic analysis; format: functional, cell-based
# HCT-116 [4] = test: Antiproliferative activity against human HCT-116 cells assessed as inhibition of DNA replication at 10 uM incubated for 22 hrs by fluorescence based microscopic analysis; format: functional, cell-based
# HCT-116 [5] = test: Induction of cell cycle arrest in human HCT-116 cells assessed as downregulation of Cyclin B1 protein level by Western blot analysis; format: functional, cell-based
# [6] = Toxicity in male BALB/c mouse xenografted with human HCT-116 cells assessed as histological change in lung at 10 to 40 mg/kg, ip by H and E staining based optical microscopic analysis; format: organism-based; conditions: in vivo, dose 10-40 mg/kg
# RKO [7] = test: Inhibition of Wnt/beta-catenin signaling pathway in human RKO cells assessed as induction of beta-catenin degradation in presence of MG132 by Western blot analysis; format: cell-based
# HCT-116 [8] = test: Induction of cell cycle arrest in human HCT-116 cells assessed as downregulation of Cyclin D1 protein level by Western blot analysis; format: functional, cell-based
# [9] = Tmax in male ICR (CD-1) mouse at 20 mg/kg, po measured upto 24 hrs by LC-MS/MS analysis; format: ADME, organism-based; conditions: in vivo
# [10] = Toxicity in male BALB/c mouse xenografted with human HCT-116 cells assessed as effect on serum uric acid level at 10 to 40 mg/kg, ip by biochemical analysis; format: organism-based; conditions: in vivo, dose 10-40 mg/kg
# Homo sapiens [11] = organism: Homo sapiens; test: Binding affinity to recombinant N-terminal GST-tagged human HSP90 (1 to 224 residues) extracted from Escherichia coli BL21 (DE3) cells at 200 uM in presence of biotin probe 1 by pulldown analysis
# RKO [12] = test: Induction of cell cycle arrest in human RKO cells assessed as accumulation of cells at G2/M phase incubated for 24 hrs by PI staining based flow cytometry; format: functional; conditions: dose 6-10 µM
# RKO [13] = test: Induction of cell cycle arrest in human RKO cells assessed as downregulation of CDK1 protein level by Western blot analysis; format: functional, cell-based
# HCT-116 [14] = test: Antiproliferative activity against human HCT-116 cells assessed as inhibition rate at 20 uM incubated for 24 hrs by MTT assay relative to control; format: functional
# Homo sapiens [15] = organism: Homo sapiens; test: Induction of human HSP90 stabilization assessed as protection against pronase E-mediated hydrolysis at 25 to 50 uM incubated for 1 hr by DART assay; conditions: dose 25-50 µM
# RKO [16] = test: Inhibition of Wnt/beta-catenin signaling pathway in human RKO cells assessed as downregulation of beta-catenin expression incubated for 24 hrs by qRT-PCR analysis; format: cell-based; conditions: dose <= 10.0 µM
# [17] = Oral bioavailability in male ICR (CD-1) mouse at 20 mg/kg measured upto 24 hrs by LC-MS/MS analysis; format: ADME, organism-based; conditions: in vivo
# [18] = Half life in male ICR (CD-1) mouse at 20 mg/kg, po measured upto 24 hrs by LC-MS/MS analysis; format: ADME, organism-based; conditions: in vivo
# [19] = Toxicity in male BALB/c mouse xenografted with human HCT-116 cells assessed as histological change in spleen at 10 to 40 mg/kg, ip by H and E staining based optical microscopic analysis; format: organism-based; conditions: in vivo, dose 10-40 mg/kg
# [20] = biological target: Heat shock protein HSP90 (Homo sapiens) (UniProt P07900+P08238); test: Induction of thermal stabilization of Hsp90 in human HCT-116 cells at 37 to 82 degree C at 100 uM incubated for 1 hr by thermal shift assay; format: cell-based
# HCT-116 [21] = test: Induction of cell cycle arrest in human HCT-116 cells assessed as accumulation of cells at S phase incubated for 24 hrs by PI staining based flow cytometry; format: functional; conditions: dose 6-10 µM
# [22] = Toxicity in male BALB/c mouse xenografted with human HCT-116 cells assessed as effect on body weight at 10 to 40 mg/kg, ip measured every two days for upto 20 days; format: organism-based; conditions: in vivo, 480 h, dose 10-40 mg/kg, time < 20 day
# [23] = Clearance in male ICR (CD-1) mouse at 5 mg/kg, iv measured upto 24 hrs by LC-MS/MS analysis; format: ADME, organism-based; conditions: in vivo
# [24] = Cmax in male ICR (CD-1) mouse at 20 mg/kg, po measured upto 24 hrs by LC-MS/MS analysis; format: ADME, organism-based; conditions: in vivo
# [25] = Half life in male ICR (CD-1) mouse at 5 mg/kg, iv measured upto 24 hrs by LC-MS/MS analysis; format: ADME, organism-based; conditions: in vivo
# [26] = AUC (0 to infinity) in male ICR (CD-1) mouse at 10 mg/kg, ip measured upto 24 hrs by LC-MS/MS analysis; format: ADME, organism-based; conditions: in vivo
# RKO [27] = test: Induction of cell cycle arrest in human RKO cells assessed as downregulation of Cyclin A2 protein level by Western blot analysis; format: functional, cell-based
# RKO [28] = test: Inhibition of Hsp90/beta-catenin in human RKO cells at 6 to 10 uM incubated for 24 hrs by co-immunoprecipitation analysis; format: cell-based; conditions: dose 6-10 µM
# HCT-116 [29] = test: Inhibition of Wnt/beta-catenin signaling pathway in human HCT-116 cells assessed as induction of beta-catenin degradation pretreated with cycloheximide followed by compound addition by Western blot analysis; format: cell-based; conditions: time <= 6.0 hrs, TDE = time-dependent effect
# [30] = Toxicity in male BALB/c mouse xenografted with human HCT-116 cells assessed as effect on serum AST level at 10 to 40 mg/kg, ip by biochemical analysis; format: organism-based; conditions: in vivo, dose 10-40 mg/kg
smiles,measurement,setting,value
CC12c3ccc(Cl)cc3CCN1CCc1c2[nH]c2ccc(Cl)cc12 (stereo not given),Activity,[1],Non-Toxic
same,inhibition,RKO [2],Dose-Dependent Effect
same,Activity,HCT-116 [3],Active
same,Activity,HCT-116 [4],Active
same,Activity,HCT-116 [5],Dose-Dependent Effect
same,Activity,[6],Non-Toxic
same,inhibition,RKO [7],inactive
same,Activity,HCT-116 [8],Dose-Dependent Effect
same,Tmax,[9],0.33 h
same,Activity,[10],Non-Toxic
same,Activity,Homo sapiens [11],Active
same,Activity,RKO [12],Dose-Dependent Effect
same,Activity,RKO [13],Dose-Dependent Effect
same,inhibition at 20 µM,HCT-116 [14],89.2%
same,Activity,Homo sapiens [15],Active
same,inhibition,RKO [16],Dose-Dependent Effect
same,bioavailability,[17],40%
same,half-life,[18],2.6 h
same,Activity,[19],Non-Toxic
same,Activity,[20],Active
same,Activity,HCT-116 [21],Dose-Dependent Effect
same,Activity,[22],Non-Toxic
same,clearance,[23],3.37 L/h/kg
same,Cmax,[24],0.832 µg/mL
same,half-life,[25],1.42 h
same,AUC(0-inf),[26],2.9 µg·h/mL
same,Activity,RKO [27],Dose-Dependent Effect
same,inhibition,RKO [28],Dose-Dependent Effect
same,inhibition,HCT-116 [29],Tde
same,Activity,[30],Non-Toxic
